Active and inactive are the calls of the source.
Key:
P388 = assay: cells; assay type: functional; details: Mus musculus
cells [1] = assay type: functional, cell-based
[2] = target: T1, Nuclear receptor subfamily 0 group B member 1 (Homo sapiens, UniProt P51843); assay type: functional, cell-based;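 further: HEK293T cells transfected with SF-1 and DAX-1 plus StAR promoter luciferase reporter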
T1 sequence (P51843 whole entry): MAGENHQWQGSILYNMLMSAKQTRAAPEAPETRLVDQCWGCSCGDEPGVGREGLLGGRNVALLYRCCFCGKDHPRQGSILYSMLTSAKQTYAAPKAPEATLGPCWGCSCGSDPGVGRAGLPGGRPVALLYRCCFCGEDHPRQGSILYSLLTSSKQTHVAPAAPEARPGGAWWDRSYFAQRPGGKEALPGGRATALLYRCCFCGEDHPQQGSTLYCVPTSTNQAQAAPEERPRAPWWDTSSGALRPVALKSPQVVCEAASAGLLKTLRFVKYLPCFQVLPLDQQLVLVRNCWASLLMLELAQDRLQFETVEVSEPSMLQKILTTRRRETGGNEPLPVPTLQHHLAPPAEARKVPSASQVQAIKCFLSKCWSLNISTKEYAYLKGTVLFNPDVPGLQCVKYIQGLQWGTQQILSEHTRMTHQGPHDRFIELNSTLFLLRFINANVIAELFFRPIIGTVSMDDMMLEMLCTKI

[3] = Luminescence-based dose response cell-based high throughput screening assay for cytotoxic compounds using the IEC-6 intestinal epithelial cell line. [Related pubchem assays: 1858 (Summary AID.), 1825 (Counterscreen.), 1907 (Confirmation screen.)]; assay type: functional
Cytochrome P450 2D6 = Cytochrome P450 2D6 (Homo sapiens, UniProt P10635);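 further: CYP2D6 member of a cytochrome P450 panel assay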
P388/ADR = assay: cells; assay type: functional; details: Mus musculus
SN12K1 = assay: cells; assay type: functional; details: Homo sapiens
Paired box protein Pax-8 = Paired box protein Pax-8 (Homo sapiens, UniProt Q06710); assay: inhibitors of PAX8-driven TPO luciferase reporter, dose response, RMG-I cells, cherry-pick (AID 687027); assay type: functional, cell-based;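 further: luciferase reporter driven by Pax8 target thyroperoxidase promoter measured by SteadyGlo luminescence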
[4] = HeLa 2N DNA content increase, dose response, cell-based, IC50 (AID 1117349); assay type: functional
[5] = cytotoxicity in HEK-293T cells, dose response, cytotoxicity control for TCR NF-kB inhibitor project, luminescence, T-cell screen hits (AID 489026); assay type: functional, cell-based;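 further: cells exposed to compound about 14 hours before the viability readout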
Cytochrome P450 2C9 = Cytochrome P450 2C9 (Homo sapiens, UniProt P11712)
Cytochrome P450 2C9, sequence (P11712 whole entry): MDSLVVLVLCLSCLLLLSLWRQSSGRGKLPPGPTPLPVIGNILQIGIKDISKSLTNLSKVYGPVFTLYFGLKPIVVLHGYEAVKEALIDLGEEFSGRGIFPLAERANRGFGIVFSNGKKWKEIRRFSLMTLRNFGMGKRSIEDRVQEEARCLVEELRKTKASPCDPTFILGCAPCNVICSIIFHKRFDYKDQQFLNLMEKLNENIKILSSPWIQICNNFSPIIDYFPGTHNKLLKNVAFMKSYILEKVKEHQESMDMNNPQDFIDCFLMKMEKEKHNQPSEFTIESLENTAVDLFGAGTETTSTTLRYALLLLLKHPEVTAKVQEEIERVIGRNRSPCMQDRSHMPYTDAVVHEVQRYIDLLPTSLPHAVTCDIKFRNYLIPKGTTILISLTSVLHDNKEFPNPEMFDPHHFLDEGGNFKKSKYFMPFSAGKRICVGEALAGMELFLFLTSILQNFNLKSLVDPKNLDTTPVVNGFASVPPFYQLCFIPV

cells [6] = assay type: functional, cell-based; remark: listed apart in the source
[7] = target: T2, Trace amine-associated receptor 1 (Homo sapiens, UniProt Q96RJ0); assay: Counterscreen for agonists of the human trace amine associated receptor 1 (hTAAR1): Fluorescence-based cell-based high throughput dose response assay to identify hTAAR1 agonist that also desensitize TAAR1 receptor response.; assay type: functional
T2 sequence (Q96RJ0 whole entry): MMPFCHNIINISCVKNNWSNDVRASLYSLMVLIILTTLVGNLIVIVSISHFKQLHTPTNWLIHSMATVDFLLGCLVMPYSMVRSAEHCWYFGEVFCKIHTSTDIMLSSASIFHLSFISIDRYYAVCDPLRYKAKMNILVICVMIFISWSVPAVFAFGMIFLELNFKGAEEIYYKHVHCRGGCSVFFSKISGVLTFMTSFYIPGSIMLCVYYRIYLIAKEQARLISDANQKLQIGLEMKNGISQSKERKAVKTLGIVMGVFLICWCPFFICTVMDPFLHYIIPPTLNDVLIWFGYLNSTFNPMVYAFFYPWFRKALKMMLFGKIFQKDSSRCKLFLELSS

cells [8] = assay type: functional, cell-based; remark: listed apart in the source
[9] = target: T2, Trace amine-associated receptor 1; assay: Fluorescence-based cell-based high throughput dose response assay to identify agonists of the human trace amine associated receptor 1 (TAAR1).; assay type: functional
Beta-galactosidase = Beta-galactosidase (Escherichia coli, UniProt Q8VNN2); assay: Dose response counterscreen for EBI2 assay utilizing the enzyme, b-galactosidase.; assay type: functional
[10] = target: Tyrosine-protein phosphatase non-receptor type 11 (Homo sapiens, UniProt Q06124); assay: SHP2 phosphatase inhibition, dose response, selectivity assay for STEP inhibitor project, biochemical (AID 602367); assay type: functional; details: read-out: IC50_Mean
[11] = target: T3, Tyrosine-protein phosphatase non-receptor type 22 (Homo sapiens, UniProt Q9Y2R2); assay: PTPN22 phosphatase inhibition, dose response, selectivity assay for STEP inhibitor project, biochemical (AID 624241); assay type: functional
T3 sequence (Q9Y2R2 whole entry): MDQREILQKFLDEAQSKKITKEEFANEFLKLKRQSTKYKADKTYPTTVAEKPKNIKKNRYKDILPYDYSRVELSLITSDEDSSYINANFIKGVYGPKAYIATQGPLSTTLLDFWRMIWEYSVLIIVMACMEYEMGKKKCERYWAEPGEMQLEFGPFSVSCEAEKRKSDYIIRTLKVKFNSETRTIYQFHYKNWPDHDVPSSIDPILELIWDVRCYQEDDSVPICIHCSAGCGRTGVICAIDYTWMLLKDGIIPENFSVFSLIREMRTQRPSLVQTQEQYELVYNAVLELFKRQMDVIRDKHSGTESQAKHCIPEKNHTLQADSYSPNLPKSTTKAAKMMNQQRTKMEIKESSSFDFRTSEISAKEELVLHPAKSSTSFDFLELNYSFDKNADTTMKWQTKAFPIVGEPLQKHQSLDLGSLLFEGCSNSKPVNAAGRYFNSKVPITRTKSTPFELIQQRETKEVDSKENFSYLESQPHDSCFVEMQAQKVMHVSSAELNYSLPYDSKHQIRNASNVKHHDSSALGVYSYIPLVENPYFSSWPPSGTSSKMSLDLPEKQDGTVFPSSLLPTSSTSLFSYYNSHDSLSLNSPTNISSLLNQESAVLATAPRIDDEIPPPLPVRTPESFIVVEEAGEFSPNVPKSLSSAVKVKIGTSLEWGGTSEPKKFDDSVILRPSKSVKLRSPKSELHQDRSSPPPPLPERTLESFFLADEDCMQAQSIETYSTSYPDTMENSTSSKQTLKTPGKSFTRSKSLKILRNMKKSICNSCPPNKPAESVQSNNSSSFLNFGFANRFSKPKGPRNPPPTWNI

[12] = target: T4, Carboxy-terminal domain RNA polymerase II polypeptide A small phosphatase 1 (Homo sapiens, UniProt Q9GZU7); assay: inhibitors of CTDSP1, concentration-response testing, biochemical assay, absorbance-based, actives from ultra-high-throughput screening (AID 540297); assay type: functional
T4 sequence (Q9GZU7 whole entry): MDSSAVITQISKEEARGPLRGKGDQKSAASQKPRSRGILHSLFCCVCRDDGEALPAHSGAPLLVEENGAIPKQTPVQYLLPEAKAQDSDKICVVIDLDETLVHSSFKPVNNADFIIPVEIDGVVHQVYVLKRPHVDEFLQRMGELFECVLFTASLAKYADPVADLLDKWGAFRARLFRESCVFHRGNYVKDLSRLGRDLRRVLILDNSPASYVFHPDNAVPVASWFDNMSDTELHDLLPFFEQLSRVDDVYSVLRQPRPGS

[13] = target: Tyrosine-protein phosphatase non-receptor type 5 (Homo sapiens, UniProt P54829); assay: STEP phosphatase inhibitors, confirmation, biochemical, fluorescence intensity, uHTS hits (AID 602372); assay type: functional; details: read-out: IC50_Mean
[14] = target: Dual specificity protein phosphatase 3 (Homo sapiens, UniProt P51452); assay: VHR phosphatase inhibition, dose response, selectivity assay for STEP inhibitor project, biochemical (AID 602374); assay type: functional; details: read-out: IC50_Mean
[15] = target: T5, Voltage-gated N-type calcium channel alpha-1B subunit/Amyloid beta A4 precursor protein-binding family A member 1 (Homo sapiens, UniProt Q00975+Q02410); assay type: protein assay
T5 sequence (Q00975 whole entry): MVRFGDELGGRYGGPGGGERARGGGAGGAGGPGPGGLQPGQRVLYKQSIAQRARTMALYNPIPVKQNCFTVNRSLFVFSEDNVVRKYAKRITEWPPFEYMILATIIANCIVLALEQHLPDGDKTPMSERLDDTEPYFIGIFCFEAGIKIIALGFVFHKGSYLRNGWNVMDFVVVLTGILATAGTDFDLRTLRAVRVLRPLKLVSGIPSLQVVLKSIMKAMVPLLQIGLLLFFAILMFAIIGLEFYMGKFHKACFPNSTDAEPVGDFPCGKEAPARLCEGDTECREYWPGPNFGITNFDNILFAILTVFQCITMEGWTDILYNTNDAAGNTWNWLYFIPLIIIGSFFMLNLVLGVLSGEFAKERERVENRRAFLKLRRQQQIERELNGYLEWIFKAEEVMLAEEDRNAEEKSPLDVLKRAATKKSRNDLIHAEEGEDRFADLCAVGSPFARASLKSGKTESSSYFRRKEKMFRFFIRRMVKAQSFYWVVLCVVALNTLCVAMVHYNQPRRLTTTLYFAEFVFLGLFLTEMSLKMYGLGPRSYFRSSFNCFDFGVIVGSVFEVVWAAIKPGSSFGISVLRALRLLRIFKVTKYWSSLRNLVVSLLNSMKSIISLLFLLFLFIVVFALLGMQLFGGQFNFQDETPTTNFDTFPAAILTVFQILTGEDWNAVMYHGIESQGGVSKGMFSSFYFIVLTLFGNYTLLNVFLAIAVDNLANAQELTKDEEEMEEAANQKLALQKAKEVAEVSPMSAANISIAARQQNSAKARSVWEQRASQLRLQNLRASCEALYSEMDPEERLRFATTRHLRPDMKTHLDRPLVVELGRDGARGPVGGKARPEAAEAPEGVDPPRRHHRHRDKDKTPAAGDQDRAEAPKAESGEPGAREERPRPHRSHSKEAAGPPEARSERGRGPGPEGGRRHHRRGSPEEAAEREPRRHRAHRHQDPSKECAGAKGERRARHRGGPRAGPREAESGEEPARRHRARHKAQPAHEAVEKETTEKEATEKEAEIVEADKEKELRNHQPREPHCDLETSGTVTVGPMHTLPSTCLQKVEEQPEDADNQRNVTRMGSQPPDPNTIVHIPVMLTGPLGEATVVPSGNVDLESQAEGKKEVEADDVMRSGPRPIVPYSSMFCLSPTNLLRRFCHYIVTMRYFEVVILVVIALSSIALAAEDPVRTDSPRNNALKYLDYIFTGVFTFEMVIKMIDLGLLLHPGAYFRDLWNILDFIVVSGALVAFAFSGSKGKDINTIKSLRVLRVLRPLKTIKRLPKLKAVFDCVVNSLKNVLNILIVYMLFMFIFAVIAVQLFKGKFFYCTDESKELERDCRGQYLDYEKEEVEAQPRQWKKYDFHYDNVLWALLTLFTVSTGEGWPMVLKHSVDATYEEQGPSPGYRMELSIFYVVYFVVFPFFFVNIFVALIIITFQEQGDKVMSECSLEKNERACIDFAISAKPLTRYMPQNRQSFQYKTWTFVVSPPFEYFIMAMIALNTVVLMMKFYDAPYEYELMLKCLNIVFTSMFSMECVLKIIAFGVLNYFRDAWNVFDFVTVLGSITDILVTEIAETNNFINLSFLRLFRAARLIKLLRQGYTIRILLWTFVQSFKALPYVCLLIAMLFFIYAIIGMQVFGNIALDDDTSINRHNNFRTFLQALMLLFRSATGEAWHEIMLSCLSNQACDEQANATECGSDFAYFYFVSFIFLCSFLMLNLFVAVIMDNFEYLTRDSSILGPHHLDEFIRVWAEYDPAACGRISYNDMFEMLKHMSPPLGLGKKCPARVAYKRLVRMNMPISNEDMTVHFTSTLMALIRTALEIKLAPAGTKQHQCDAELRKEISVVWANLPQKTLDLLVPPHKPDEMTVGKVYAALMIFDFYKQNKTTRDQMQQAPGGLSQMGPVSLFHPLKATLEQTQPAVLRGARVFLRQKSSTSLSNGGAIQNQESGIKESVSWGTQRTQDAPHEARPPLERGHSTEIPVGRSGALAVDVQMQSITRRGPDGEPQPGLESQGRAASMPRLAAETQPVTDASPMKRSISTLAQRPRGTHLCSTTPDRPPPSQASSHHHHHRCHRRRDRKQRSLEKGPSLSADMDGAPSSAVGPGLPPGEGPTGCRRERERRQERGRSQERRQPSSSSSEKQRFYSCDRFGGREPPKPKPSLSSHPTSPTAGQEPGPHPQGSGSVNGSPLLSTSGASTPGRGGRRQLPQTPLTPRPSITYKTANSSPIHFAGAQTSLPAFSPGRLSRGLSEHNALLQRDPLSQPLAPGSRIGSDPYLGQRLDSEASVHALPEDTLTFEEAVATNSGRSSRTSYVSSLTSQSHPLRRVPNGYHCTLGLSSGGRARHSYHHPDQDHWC
T5 sequence (Q02410 whole entry): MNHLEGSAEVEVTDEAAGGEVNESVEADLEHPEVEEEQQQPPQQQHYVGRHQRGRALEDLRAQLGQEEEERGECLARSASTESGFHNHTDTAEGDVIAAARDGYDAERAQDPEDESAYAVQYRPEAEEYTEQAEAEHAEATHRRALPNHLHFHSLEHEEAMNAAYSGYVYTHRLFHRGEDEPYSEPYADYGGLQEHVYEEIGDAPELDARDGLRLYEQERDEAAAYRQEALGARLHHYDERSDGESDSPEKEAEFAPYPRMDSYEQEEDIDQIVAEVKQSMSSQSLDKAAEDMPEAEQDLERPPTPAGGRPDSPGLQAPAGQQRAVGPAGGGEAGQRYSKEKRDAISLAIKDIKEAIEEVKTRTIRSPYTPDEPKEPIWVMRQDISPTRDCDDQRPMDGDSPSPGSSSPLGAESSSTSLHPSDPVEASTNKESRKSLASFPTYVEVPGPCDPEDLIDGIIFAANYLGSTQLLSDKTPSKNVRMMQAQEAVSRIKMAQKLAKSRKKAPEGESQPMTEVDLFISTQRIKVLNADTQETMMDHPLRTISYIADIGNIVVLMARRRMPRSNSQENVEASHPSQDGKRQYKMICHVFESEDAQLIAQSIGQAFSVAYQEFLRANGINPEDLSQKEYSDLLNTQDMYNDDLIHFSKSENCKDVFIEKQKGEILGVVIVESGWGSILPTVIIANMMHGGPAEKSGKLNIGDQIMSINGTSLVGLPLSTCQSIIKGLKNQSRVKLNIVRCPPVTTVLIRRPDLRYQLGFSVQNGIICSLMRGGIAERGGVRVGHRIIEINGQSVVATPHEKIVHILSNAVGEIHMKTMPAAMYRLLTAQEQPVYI

Ephrin type-A receptor 4 = Ephrin type-A receptor 4 (Mus musculus, UniProt Q03137); assay: inhibitors of EphA4 binding to KYL peptide, primary screen, biochemical, colorimetric, mouse EphA4 (AID 689); assay type: functional
[16] = target: Beta-2 adrenergic receptor (Homo sapiens, UniProt P07550); assay: Dose response for HTS for Beta-2AR agonists via FAP method from Powderset3.; assay type: functional
[17] = target: Induced myeloid leukemia cell differentiation protein Mcl-1 (Homo sapiens, UniProt Q07820); assay type: functional
Induced myeloid leukemia cell differentiation protein Mcl-1, sequence (Q07820 whole entry): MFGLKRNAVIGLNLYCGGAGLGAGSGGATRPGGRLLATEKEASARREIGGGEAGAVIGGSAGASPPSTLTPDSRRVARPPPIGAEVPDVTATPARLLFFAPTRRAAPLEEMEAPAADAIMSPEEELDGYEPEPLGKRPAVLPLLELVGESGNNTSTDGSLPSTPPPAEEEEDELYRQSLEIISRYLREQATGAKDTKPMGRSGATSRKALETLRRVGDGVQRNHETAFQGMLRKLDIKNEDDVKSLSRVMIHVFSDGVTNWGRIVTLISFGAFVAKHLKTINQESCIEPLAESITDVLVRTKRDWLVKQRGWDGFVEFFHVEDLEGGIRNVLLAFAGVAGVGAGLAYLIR

[18] = target: T5, Voltage-gated N-type calcium channel alpha-1B subunit/Amyloid beta A4 precursor protein-binding family A member 1; assay type: protein assay; remark: listed apart in the source
Beta-lactamase [19] = target: T6, Beta-lactamase (Pseudomonas aeruginosa, UniProt Q79MP6)
T6 sequence (Q79MP6 whole entry): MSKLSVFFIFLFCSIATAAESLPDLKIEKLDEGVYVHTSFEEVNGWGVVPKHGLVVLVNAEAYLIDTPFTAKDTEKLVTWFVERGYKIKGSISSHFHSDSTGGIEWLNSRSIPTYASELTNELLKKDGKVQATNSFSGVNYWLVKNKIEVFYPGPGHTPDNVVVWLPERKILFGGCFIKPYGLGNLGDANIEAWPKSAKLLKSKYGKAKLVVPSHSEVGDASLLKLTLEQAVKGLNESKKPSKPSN

Beta-lactamase [20] = target: T7, Beta-lactamase (Salmonella choleraesuis (strain SC-B67), UniProt Q5J463)
T7 sequence (Q5J463 whole entry): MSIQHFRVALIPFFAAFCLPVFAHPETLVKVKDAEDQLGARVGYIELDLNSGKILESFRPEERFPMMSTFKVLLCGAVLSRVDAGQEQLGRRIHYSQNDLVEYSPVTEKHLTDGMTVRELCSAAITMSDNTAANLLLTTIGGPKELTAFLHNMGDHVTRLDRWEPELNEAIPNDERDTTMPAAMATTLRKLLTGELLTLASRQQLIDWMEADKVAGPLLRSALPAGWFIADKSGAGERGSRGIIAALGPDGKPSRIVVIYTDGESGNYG

[21] = target: T8, Matrix metalloproteinase-14 (Homo sapiens, UniProt P50281); assay: Dose Response confirmation of uHTS hits for a small molecule inhibitors of MT1-MMP activation in a fluorescence assay set 1.; assay type: functional
[22] = target: T8, Matrix metalloproteinase-14; assay: SAR confirmation of uHTS hits for a small molecule inhibitors of MT1-MMP activation in a fluorescence assay.; assay type: functional
Beta-lactamase [23] = target: T7, Beta-lactamase; assay: Epi-absorbance-based counterscreen for selective VIM-2 inhibitors: dose response biochemical high throughput screening assay to identify inhibitors of TEM-1 serine-beta-lactamase.
Beta-lactamase [24] = target: T6, Beta-lactamase; assay: […] counterscreen for selective VIM-2 inhibitors: dose response biochemical high throughput screening assay to identify inhibitors of IMP-1 metallo-beta-lactamase.
Beta-lactamase [25] = target: T6, Beta-lactamase; assay: IMP-1 metallo-beta-lactamase inhibitors, dose response, selectivity assay for VIM-2 inhibitor project, biochemical, epi-absorbance (AID 1920)
[26] = target: E3 ubiquitin-protein ligase XIAP (Homo sapiens, UniProt P98170); assay: Counter Screen using XIAP-Bir3 for Chemical Antagonists of Bir1/2 domains of IAP-family anti-apoptotic proteins. [Related pubchem assays (depositor defined):AID1018, AID1449, AID1514, AID1638, AID1749, AID1750, AID488957, AID488963]
[27] = target: 72 kDa type IV collagenase (Homo sapiens, UniProt P08253); assay: Dose Response validation of uHTS RPN11 inhibitor hits using a MMP-2 Fluorescence assay.; assay type: functional
[28] = target: T9, Small ubiquitin-related modifier 1 (Homo sapiens, UniProt P63165); assay: inhibitors of SUMO1 peptide binding, dose response, biochemical, fluorescence polarization, uHTS hits (AID 624382); assay type: functional; details: read-out: IC50_Mean
T9 sequence (P63165 whole entry): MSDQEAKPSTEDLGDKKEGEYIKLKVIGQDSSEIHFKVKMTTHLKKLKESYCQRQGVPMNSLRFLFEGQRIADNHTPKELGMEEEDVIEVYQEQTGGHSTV

Albumin = Albumin (Bos taurus, UniProt P02769); assay: Counterscreen for inhibitors of T-cell receptor (TCR)-CD3 interaction: Fluorescence-based biochemical high throughput dose response assay to identify inhibitors of T-cell receptor (TCR)-CD3 interaction using a TAMRA-labeled BSA probe.; assay type: functional
[29] = target: 26S proteasome non-ATPase regulatory subunit 14 (Homo sapiens, UniProt O00487); assay: inhibition of proteasome subunit RPN11 – biochemical, fluorescence polarization, uHTS hits, confirmation (AID 602368); assay type: functional
Prothrombin = Prothrombin (Bos taurus, UniProt P00735); assay: thrombin inhibition, dose response, biochemical, fluorescence polarization, uHTS hits (AID 602369); assay type: functional
[30] = target: RNA-editing ligase 1, mitochondrial (Trypanosoma brucei brucei, UniProt P86926); assay: TbREL1 ligase inhibitors, dose response, biochemical, fluorescence, Trypanosoma brucei (AID 1117295); assay type: functional
[31] = target: T9, Small ubiquitin-related modifier 1; assay: inhibitors of SUMO1 partner interactions, dose response, biochemical, FRET (AID 624383); assay type: functional; details: read-out: IC50_Mean

Compound: COc1cc2c(c(OC)c1OC)-c1ccc(OC)c(=O)cc1[C@@H](NC(C)=O)CC2 [COLCHICINE]
- GI50 (P388): 62.5 nM (active)
- IC50 (cells [1]): > 67.6 µM (inactive)
- IC50 [2]: > 67.6 µM (inactive)
- IC50 [3]: 62.8 nM (active)
- AC50 (Cytochrome P450 2D6): 794 nM (active)
- GI50 (P388/ADR): 1.36 µM (inactive)
- GI50 (SN12K1): < 62.5 nM (active)
- AC50 (Paired box protein Pax-8): < 260 nM (active)
- IC50 [4]: 1.7 nM (active)
- IC50 [5]: > 80 µM (inactive)
- AC50 (Cytochrome P450 2C9): 3.16 µM (active)

Compound: O=C(N[C@@H](Cc1cccnc1)C(=O)N1CCC[C@H]1C(=O)NCCc1ccccc1Cl)c1ccc(Cl)cc1Cl
- EC50 (cells [6]): > 29.9 µM (inactive)
- IC50 [7]: 2.94 µM (active)
- IC50 (cells [8]): > 29.9 µM (inactive)
- EC50 [9]: 4.03 µM (active)

Compound: CCN1CCN(C(=O)/C=C/c2ccc(C)cc2)CC1
- IC50 (Beta-galactosidase): > 80 µM (inactive)

Compound: O=C(O)CC/C(=N\Nc1ccc(S(=O)(=O)N2CCCC2)cc1[N+](=O)[O-])c1cccs1
- IC50 [10]: 14.5 µM (active)
- IC50 [11]: 34.5 µM (inactive)
- IC50 [12]: 15.5 µM (active)
- IC50 [13]: 19 µM (active)
- IC50 [14]: 15.6 µM (active)

Compound: CSc1nc(SCCO)c2sc3nc(-c4ccco4)c4c(c3c2n1)CC(C)(C)OC4
- IC50 [15]: > 56.8 µM (not active)
- IC50 (Ephrin type-A receptor 4): 6.73 µM (active)
- EC50 [16]: 1.81 µM (active)
- IC50 [12]: 3.01 µM (active)
- IC50 [17]: 1.54 µM (active)
- IC50 [18]: 14.3 µM (active)

Compound: Cn1cc(/C=C(\C(=O)O)C(C(=O)O)=C2CCCCC2)c2ccccc21
- IC50 (Beta-lactamase [19]): > 59.6 µM (inactive)
- IC50 (Beta-lactamase [20]): > 59.6 µM (inactive)

Compound: CCn1c(=O)c(=O)[nH]c2cc(C(=O)NC3CCCc4ccccc43)ccc21 (configuration not stated)
- IC50 [21]: 26.7 µM (inactive)
- IC50 [22]: 29.1 µM (inactive)

Compound: Sc1nnc(-c2ccc3ccccc3n2)n1-c1ccc2c(c1)OCCO2
- IC50 (Beta-lactamase [23]): > 59.6 µM (inactive)
- IC50 (Beta-lactamase [24]): > 59.6 µM (inactive)
- IC50 (Beta-lactamase [25]): > 59.6 µM (inactive)

Compound: NS(=O)(=O)c1ccc(NC(=O)c2cccc(N3C(=O)c4ccccc4C3=O)c2)cc1
- IC50 [26]: > 20 µM (inactive)
- IC50 [27]: > 100 µM (inactive)
- IC50 [28]: > 66.6 µM (inactive)
- IC50 (Albumin): > 94.1 µM (inactive)
- IC50 [29]: 40.2 µM (active)
- IC50 (Prothrombin): > 100 µM (inactive)
- IC50 [30]: 30.8 µM (inactive)
- IC50 [31]: 14.4 µM (active)

Source: ChEMBL document CHEMBL1201862, “PubChem BioAssay data set” (2004)
